Usually AUC stands for concentration integrated over time.

One molecule from ChEMBL document CHEMBL1143492, “Design, synthesis, and bioavailability evaluation of coumarin-based prodrug of meptazinol” (Bioorg Med Chem Lett, 2005) can be followed below.

The data set is described as follows: Area under curve was determined after intravenous administration (29.7 umol/kg) in rat. The data set is classed as ADME. To be noted: in vivo.

On to `CCC1(c2cccc(O)c2)CCCCN(C)C1` (stereo unspecified) [MEPTAZINOL], for which the AUC was 1990 ng·h/mL.
